Results from patent US20080090805A1, “CB-1 MODULATING COMPOUNDS AND THEIR USE” (ACADIA PHARMACEUTICALS INC., priority 2005, published 2008).
Like-named read-outs stand apart in the source and are kept apart here.

Target: CB1 (mutant) (Homo sapiens, UniProt P21554)
Test: R-SAT functional receptor assay, CB1 (mutant, truncated after amino acid 417)
Assay type: cell-based
Conditions: R-SAT CB1; for IC50 / pIC50: receptor form (mutant or wild-type) not stated; for Emax: read-out: % Inhibition
[1] = Appendix A, read-out: pIC50 (converted)
[2] = Appendix A, receptor form not stated, relative to SR141716 (100%)

CB1 (mutant), sequence (P21554 1-417, change not shown): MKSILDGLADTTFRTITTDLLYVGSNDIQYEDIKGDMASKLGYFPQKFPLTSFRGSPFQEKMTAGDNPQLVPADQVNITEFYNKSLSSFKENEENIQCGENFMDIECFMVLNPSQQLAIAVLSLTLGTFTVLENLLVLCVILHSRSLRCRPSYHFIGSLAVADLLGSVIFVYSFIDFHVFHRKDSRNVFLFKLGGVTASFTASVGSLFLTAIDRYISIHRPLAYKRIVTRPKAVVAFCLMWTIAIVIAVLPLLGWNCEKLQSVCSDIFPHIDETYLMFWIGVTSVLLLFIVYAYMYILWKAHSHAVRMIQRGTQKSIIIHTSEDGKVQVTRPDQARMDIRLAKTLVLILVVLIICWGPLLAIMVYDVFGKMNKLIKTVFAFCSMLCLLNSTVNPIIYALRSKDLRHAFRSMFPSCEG

Structure (SMILES)	IC50 [1] [nM]	Emax [2] [%]	% Inhibition [2] [%]	IC50 (pIC50, Appendix A) [nM]	pIC50 (Appendix A)
Cc1ccc(CNC(=O)c2ccc3c(c2)N=C(c2ccc(Cl)cc2F)c2ccccc2S3)o1 [drawing 1039]	31.6	76			
O=C(NCc1cccnc1)c1ccc2c(c1)N=C(c1ccccn1)c1ccccc1S2	316	67			
CCCCN(CCCC)CCNC(=O)c1ccc2c(c1)N=C(CCC)c1ccccc1S2	398	109			
CON(C)C(=O)c1ccc2c(c1)N=C(c1ccc(Cl)cc1F)c1ccccc1S2	1580	46			
CC(C)CNC(=O)c1ccc2c(c1)N=C(c1ccccc1Cl)c1ccccc1S2		86			
CC(C)CNC(=O)c1ccc2c(c1)N=C(c1cccc(Cl)c1)c1ccccc1S2 [drawing 565]			105		
COc1ccc(C2=Nc3cc(C(=O)NCCC(C)C)ccc3Sc3ccccc32)cc1 [drawing 965]	20	104			
CCCNC(=O)c1ccc2c(c1)N=C(c1ccc(Cl)cc1F)c1ccccc1S2 [drawing 851]	12.6	101			
O=C(NCCc1ccccn1)c1ccc2c(c1)N=C(c1ccc(F)cc1)c1ccccc1S2 [drawing 1145]	39.8	101			
O=C(NC1CCC(F)(F)CC1)c1ccc2c(c1)N=C(c1ccc(Cl)s1)c1ccccc1S2 [drawing 767]	10	71			
Cc1ccc(CNC(=O)c2ccc3c(c2)N=C(c2ccc(Cl)cc2)c2ccccc2S3)o1 [drawing 1141]		93		39.8	
O=C(NCCCc1ccccc1)c1ccc2c(c1)N=C(c1ccccc1)c1ccccc1S2 [drawing 617]	3.98	111			
O=C(NCCc1ccccn1)c1ccc2c(c1)N=C(c1cccc(Cl)c1)c1ccccc1S2 [drawing 905]	15.8	103			
CCN(CCNC(=O)c1ccc2c(c1)N=C(c1ccc(Cl)cc1)c1ccccc1S2)c1ccccc1 [drawing 635]	5.01	102			
CON(C)C(=O)c1ccc2c(c1)N=C(c1ccccn1)c1ccccc1S2		8			1.0
CC(NC(=O)c1ccc2c(c1)N=C(c1ccccc1)c1ccccc1S2)c1ccccc1 (stereo not shown) [drawing 1147]	39.8	85			
CCCCNC(=O)c1ccc2c(c1)N=C(c1ccc(Cl)cc1)c1ccccc1[S+]2[O-] (stereo not shown) [drawing 666]	63.1	97			
O=C(NCc1ccc(F)cc1)c1ccc2c(c1)N=C(c1ccc(F)cc1)c1ccccc1N2		61			
O=C(NCCc1cccnc1)c1ccc2c(c1)N=C(c1ccccc1Cl)c1ccccc1S2	158	76			
O=C(NN1CCCCC1)c1ccc2c(c1)N=C(c1ccccc1Cl)c1ccccc1S2	501	45			
CCCNC(=O)c1ccc2c(c1)N=C(CCC)c1ccccc1S2	31.6	95			
O=C(NCCCC(F)(F)F)c1ccc2c(c1)N=C(c1ccccn1)c1ccccc1S2 [drawing 871]	15.8	117			
CCCC1=Nc2cc(C(=O)NCCCN3CCC(c4cc(Cl)ccc4C)CC3)ccc2Sc2ccccc21	316	117			
O=C(NCCCc1ccccc1)c1ccc2c(c1)N=C(N1CCCCC1)c1ccccc1S2 [drawing 903]	15.8	104			
O=C(NCc1cccc(Cl)c1)c1ccc2c(c1)N=C(c1ccccc1F)c1ccccc1S2 [drawing 1083]	31.6	99			
CCONC(=O)c1ccc2c(c1)N=C(c1ccccc1Cl)c1ccccc1S2		19			1.0
O=C(NCc1cccc(Cl)c1)c1ccc2c(c1)N=C(N1CCCCC1)c1ccccc1S2(=O)=O [drawing 939]		91		20	
COc1ccc(C2=Nc3cc(C(=O)NC4CCCCNC4=O)ccc3Sc3ccccc32)cc1 (stereo not shown)	251	62			
O=C(NCCc1ccc(Cl)cc1)c1ccc2c(c1)N=C(N1CCC(F)(F)CC1)c1ccccc1S2 [drawing 628]	63.1	99			
